Assay [1] has as its system CMK cells. As to the kind of experiment: Polyploidization of CMK cells (DNA content). It is filed as cell-based, human. The conditions noted are these: GATA1/JAK3 double mutant CMK cell line, 72 hours. As for the experimental part:
(§1) (A) Y10, (B) GIME, and (C) CMK cells were grown in the presence of TPO, SU6656, or vehicle (DMSO) for 72 hours. DNA content was measured by flow cytometry. The percentages of cells that reach a DNA content of ≧8N are boxed in A and C, those equal to 8N are boxed in B. D) CMK cells were grown as in (C), and cell numbers were enumerated at 0, 24, 48 and 72 h.
(§2) To study how megakaryocytes switch from a proliferative to endomitotic cell cycle, the Src kinase inhibitor SU6656 is being utilized.
In collaboration with the Broad Institute, a high throughput screen for small molecules was conducted to identify small molecules that preferentially induce polyploidization or differentiation of megakaryocytes. We screened 10,000 compounds from the Broad's extensive collection of small molecules (including known bioactives, kinase and HDAC inhibitors, and natural products) to identify inducers of megakaryocyte polyploidization. […] 6) Data were analyzed using both MetaXpress software and “Cell Profiler,” software designed at MIT and the Broad Institute. […]

Assay [2] concerns CMK cells. As to the kind of experiment: CMK cell proliferation (cell numbers enumerated). It is filed as cell-based, human. The following applies: CMK cells, 0, 24, 48 and 72 h. As for the experimental part: (§3) FIG. 2 illustrates that SU6656 induces polyploidization and proliferative arrest of megakaryocytic leukemia cells. (A) Y10, (B) GIME, and (C) CMK cells were grown in the presence of TPO, SU6656, or vehicle (DMSO) for 72 hours. DNA content was measured by flow cytometry. The percentages of cells that reach a DNA content of ≧8N are boxed in A and C, those equal to 8N are boxed in B. D) CMK cells were grown as in (C), and cell numbers were enumerated at 0, 24, 48 and 72 h.
as §2

For assay [3], the system named is wild-type and GATA-1 mutant megakaryocyte progenitors. Description: Proliferation of megakaryocyte progenitors. It is filed as cell-based. The conditions noted are these: preliminary data. An excerpt: The paradigm for successful, targeted differentiation therapy is the use of all trans retinoic acid (ATRA) for treatment of Acute Promyelocytic Leukemia (APL) (for a review, see (20). Prior to the development of ATRA therapy, the prognosis for patients with APL, which represents 5-10% of adult AML, was very poor. In contrast, the vast majority of APL patients treated with ATRA achieve hematologic remission (21-23). One aim of the current study is to test novel therapeutic strategies for AMKL, in particular, whether the forced induction of MK polyploidization can serve as a “differentiation therapy” for AMKL. […] Furthermore, megakaryocytes are one of the few cell types that are poised to undergo polyploidization during normal maturation.

Assay [4] relates to primary murine megakaryocytes. As to the kind of experiment: Polyploidization of primary murine megakaryocytes. The format is cell-based. The following applies: data not shown.
Description: as §2

For the next assay, the system named is Y10 cells. As to the kind of experiment: Polyploidization of Y10 cells (DNA content by flow cytometry). It is filed as cell-based. The following applies: wild-type (Y10) cells, 72 hours. As to the method: as §3, §2
A general note: Flow cytometry measures light scatter and fluorescence of single cells or particles in a stream.

In a further assay the test system is GIME cells. As to the kind of experiment: Polyploidization of GIME cells (DNA content by flow cytometry). It is filed as cell-based. The conditions noted are these: GATA1-null (GIME) cells, 72 hours. As to the method:
as §1
DNA content was then assessed by flow cytometry. Numbers above the bar indicate % of cells ≧8N. b) After 48 hours, GIME cells from a) were stained with anti-CD42 antibodies and the cell surface expression of CD42 was evaluated by flow cytometry.
as §2

Assay [5] deals with CMK (human megakaryocytic leukemia) cells. As to the kind of experiment: High throughput screen for inducers of megakaryocyte polyploidization. The conditions noted are these: 10 μM, 72 hours, Hoescht stain, high content imaging. The format is cell-based. As to the method: In collaboration with the Broad Institute, a high throughput screen for small molecules was conducted to identify small molecules that preferentially induce polyploidization or differentiation of megakaryocytes. We screened 10,000 compounds from the Broad's extensive collection of small molecules (including known bioactives, kinase and HDAC inhibitors, and natural products) to identify inducers of megakaryocyte polyploidization. The screen was performed in the following manner: 1) 4,000 CMK (human megakaryocytic leukemia) cells were plated into each well of a 384-well plate, 2) 100 n1 of compounds (yielding a final concentration of 10 μM) were pinned into the wells, 3) plates were incubated at 37° C. for 72 hours, 4) cells were fixed and stained with Hoescht, and 5) plates were imaged using an ImageXpressMICRO high content imager with 20× objective. Nine images per well were collected. 6) Data were analyzed using both MetaXpress software and “Cell Profiler,” software designed at MIT and the Broad Institute. Seventy-two plates containing duplicates of nearly 10,000 small molecules were screened.

In the case of `CN(C)S(=O)(=O)c1ccc2c(c1)/C(=C/c1cc3c([nH]1)CCCC3)C(=O)N2` [SU6656], the polyploidization result with CMK cells [1] is given as “efficiently promoted polyploidization”; in assay [4] it was “promote polyploidization”; in the assay on Y10 cells, “efficiently promoted polyploidization”; in the assay on GIME cells, “efficiently promoted polyploidization”. Moreover, in the assay on CMK cells [2], the “proliferation (cell numbers)” value is listed as “cessation of proliferation”. For the same compound, in assay [3], the “proliferation of megakaryocyte progenitors” value is listed as “effectively reduces proliferation”. Moreover, the “positive in polyploidization screen” value in assay [5] is listed as “positives”.

(Values after patent US8933071B2, “Dimethyl fasudil for inducing polyploidization of megakaryocytes and for treating blood and bone marrow diseases and disorders” (Northwestern University, priority 2008, dated 2015).)
